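Values below derive from 48-hour exposures of cells grown in 96-well plates, with endpoints linearly interpolated between the two concentrations bracketing the appropriate inhibition level. The concentration for 50% growth inhibition is given as GI50. Definition used: TGI = concentration required for complete inhibition of growth.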
Tests used:
Experiment in all cases: growth of human tumour cells (NCI), 48 h
[1] = test system: PC-3 prostate
[2] = test system: A498 renal
[3] = test system: BT-549 breast
[4] = test system: IGROV1 ovarian
[5] = test system: MOLT-4 leukemia
[6] = test system: NCI-H460 lung
[7] = test system: EKVX NSCLC
[8] = test system: NCI-H23 lung
[9] = test system: SF-268 CNS
[10] = test system: OVCAR-4 ovarian
[11] = test system: SN12C renal
[12] = test system: TK-10 renal
[13] = test system: M14 melanoma
[14] = test system: HS 578T breast
[15] = test system: SF-539 CNS
[16] = test system: HCT-15 colon
[17] = test system: ACHN renal
[18] = test system: SF-295 CNS
[19] = test system: SK-MEL-2 melanoma
[20] = test system: CAKI-1 renal
[21] = test system: OVCAR-3 ovarian
[22] = test system: HCC-2998 colon
[23] = test system: T-47D breast
[24] = test system: SW-620 colon
[25] = test system: SK-OV-3 ovarian
[26] = test system: U251 CNS
[27] = test system: SK-MEL-5 melanoma
[28] = test system: OVCAR-5 ovarian
[29] = test system: HCT-116 colon
[30] = test system: CCRF-CEM leukemia
[31] = test system: OVCAR-8 ovarian
[32] = test system: LOX IMVI melanoma
[33] = test system: UO-31 renal
[34] = test system: NCI/ADR-RES ovarian
[35] = test system: RXF 393 renal
[36] = test system: SNB-75 CNS
[37] = test system: HOP-62 NSCLC
[38] = test system: MCF7 breast
[39] = test system: K-562 leukemia
[40] = test system: DU-145 prostate
[41] = test system: HOP-92 NSCLC
[42] = test system: 786-0 renal
[43] = test system: UACC-62 melanoma
[44] = test system: COLO 205 colon
[45] = test system: KM12 colon
[46] = test system: UACC-257 melanoma
[47] = test system: NCI-H522 lung
[48] = test system: SR leukemia
[49] = test system: RPMI-8226 leukemia
[50] = test system: SNB-19 CNS
[51] = test system: MDA-MB-435
[52] = test system: HL-60(TB) leukemia
[53] = test system: SK-MEL-28 melanoma
[54] = test system: NCI-H226 lung
[55] = test system: MALME-3M melanoma
[56] = test system: HT29 colon
[57] = test system: MDA-MB-231 breast
[58] = test system: A549 NSCLC

SMILES: Cc1nnc(C[C@@H]2C=C(c3ccc(Cl)cc3)c3ccccc3-n3c(C)nnc32)o1
- GI50 [1]: 3.53 µM
- TGI [1]: > 100 µM
- GI50 [2]: 0.712 µM
- TGI [2]: 12.7 µM
- GI50 [3]: 1.48 µM
- TGI [3]: 29.2 µM
- GI50 [4]: 2.3 µM
- TGI [4]: > 100 µM
- GI50 [5]: 8.35 µM
- TGI [5]: > 100 µM
- GI50 [6]: 11.7 µM
- TGI [6]: > 100 µM
- GI50 [7]: 6.01 µM
- TGI [7]: > 100 µM
- GI50 [8]: 1.51 µM
- TGI [8]: 96.9 µM
- GI50 [9]: 13.1 µM
- TGI [9]: 73.5 µM
- GI50 [10]: 1.29 µM
- TGI [10]: > 100 µM
- GI50 [11]: 12 µM
- TGI [11]: > 100 µM
- GI50 [12]: 0.148 µM
- TGI [12]: 27.1 µM
- GI50 [13]: 0.529 µM
- TGI [13]: 56.7 µM
- GI50 [14]: 0.578 µM
- TGI [14]: 46.1 µM
- GI50 [15]: 1.16 µM
- TGI [15]: 54.3 µM
- GI50 [16]: 0.461 µM
- TGI [16]: 40.2 µM
- GI50 [17]: 1.25 µM
- TGI [17]: > 100 µM
- GI50 [18]: 1.71 µM
- TGI [18]: 43 µM
- GI50 [19]: 10.2 µM
- TGI [19]: 47.6 µM
- GI50 [20]: 0.133 µM
- TGI [20]: 93.7 µM
- GI50 [21]: 1.08 µM
- TGI [21]: 19.8 µM
- GI50 [22]: 1.33 µM
- TGI [22]: 18.6 µM
- GI50 [23]: 0.719 µM
- TGI [23]: > 92.7 µM
- GI50 [24]: 12 µM
- TGI [24]: 68.7 µM
- GI50 [25]: 0.262 µM
- TGI [25]: 12 µM
- GI50 [26]: 4.81 µM
- TGI [26]: > 76.1 µM
- GI50 [27]: 1.81 µM
- TGI [27]: 19.7 µM
- GI50 [28]: 4.7 µM
- TGI [28]: > 100 µM
- GI50 [29]: 0.472 µM
- TGI [29]: 31.9 µM
- GI50 [30]: 8.6 µM
- TGI [30]: > 94.1 µM
- GI50 [31]: 2.94 µM
- TGI [31]: > 67.4 µM
- GI50 [32]: 0.4 µM
- TGI [32]: 16 µM
- GI50 [33]: 0.0739 µM
- TGI [33]: 44.4 µM
- GI50 [34]: 1.86 µM
- TGI [34]: 43.7 µM
- GI50 [35]: 1.39 µM
- TGI [35]: 18.9 µM
- GI50 [36]: 0.048 µM
- TGI [36]: 47.3 µM
- GI50 [37]: 0.318 µM
- TGI [37]: > 90.4 µM
- GI50 [38]: 0.221 µM
- TGI [38]: > 100 µM
- GI50 [39]: 0.809 µM
- TGI [39]: > 100 µM
- GI50 [40]: 17.6 µM
- TGI [40]: > 100 µM
- GI50 [41]: 1.96 µM
- TGI [41]: > 75.1 µM
- GI50 [42]: 1.04 µM
- TGI [42]: 38.7 µM
- GI50 [43]: 0.118 µM
- TGI [43]: 18.9 µM
- GI50 [44]: 0.296 µM
- TGI [44]: 24.1 µM
- GI50 [45]: 6.25 µM
- TGI [45]: > 100 µM
- GI50 [46]: 2.43 µM
- TGI [46]: > 100 µM
- GI50 [47]: 0.578 µM
- TGI [47]: 32.4 µM
- GI50 [48]: 0.27 µM
- TGI [48]: > 70.6 µM
- GI50 [49]: 0.135 µM
- TGI [49]: 19.8 µM
- GI50 [50]: 5.53 µM
- TGI [50]: > 100 µM
- GI50 [51]: 0.858 µM
- TGI [51]: 55.9 µM
- GI50 [52]: 0.25 µM
- TGI [52]: 35.5 µM
- GI50 [53]: 2.24 µM
- TGI [53]: > 100 µM
- GI50 [54]: 12.6 µM
- TGI [54]: > 100 µM
- GI50 [55]: 5.01 µM
- TGI [55]: 64.6 µM
- GI50 [56]: 0.241 µM
- TGI [56]: > 100 µM
- GI50 [57]: 1.5 µM
- TGI [57]: > 100 µM
- GI50 [58]: 2.61 µM
- TGI [58]: > 82.2 µM

SMILES: O=C(Nc1ccc(OS(=O)(=O)c2ccc(F)cc2)cc1)C12CC3CC(CC(C3)C1)C2
- GI50 [1]: 0.647 µM
- TGI [1]: > 100 µM
- GI50 [2]: 0.936 µM
- TGI [2]: 22.4 µM
- GI50 [3]: 4.37 µM
- TGI [3]: 75.8 µM
- GI50 [4]: 16.1 µM
- TGI [4]: > 62.5 µM
- GI50 [6]: 8.09 µM
- TGI [6]: > 100 µM
- GI50 [8]: 10.1 µM
- TGI [8]: > 100 µM
- GI50 [9]: 19.8 µM
- TGI [9]: > 100 µM
- GI50 [10]: 4.38 µM
- TGI [10]: 37.7 µM
- GI50 [11]: > 43.6 µM
- TGI [11]: > 100 µM
- GI50 [12]: 21.5 µM
- TGI [12]: 62.6 µM
- GI50 [13]: 8.12 µM
- TGI [13]: > 100 µM
- GI50 [14]: 5.9 µM
- TGI [14]: > 53.2 µM
- GI50 [15]: 0.75 µM
- TGI [15]: > 100 µM
- GI50 [16]: 0.558 µM
- TGI [16]: > 100 µM
- GI50 [17]: 14.6 µM
- TGI [17]: > 100 µM
- GI50 [18]: 1.57 µM
- TGI [18]: 29.1 µM
- GI50 [19]: 12.9 µM
- TGI [19]: 39.3 µM
- GI50 [20]: 29.4 µM
- TGI [20]: > 100 µM
- GI50 [21]: 8.64 µM
- TGI [21]: 46.3 µM
- GI50 [22]: > 28.2 µM
- TGI [22]: > 100 µM
- GI50 [23]: 0.831 µM
- TGI [23]: > 100 µM
- GI50 [24]: 0.54 µM
- TGI [24]: > 100 µM
- GI50 [25]: 10.3 µM
- TGI [25]: 47.3 µM
- GI50 [26]: 18 µM
- TGI [26]: > 100 µM
- GI50 [27]: 4.12 µM
- TGI [27]: > 100 µM
- GI50 [28]: 26.1 µM
- TGI [28]: > 100 µM
- GI50 [29]: 0.929 µM
- TGI [29]: > 100 µM
- GI50 [31]: 18.1 µM
- TGI [31]: > 100 µM
- GI50 [32]: > 27.5 µM
- TGI [32]: > 100 µM
- GI50 [33]: 6.21 µM
- TGI [33]: > 100 µM
- GI50 [34]: 3.15 µM
- TGI [34]: > 100 µM
- GI50 [35]: 3.15 µM
- TGI [35]: 22.5 µM
- GI50 [36]: 4.51 µM
- TGI [36]: 26.8 µM
- GI50 [37]: 11.3 µM
- TGI [37]: 30.6 µM
- GI50 [38]: 0.641 µM
- TGI [38]: > 100 µM
- GI50 [39]: 0.319 µM
- TGI [39]: > 100 µM
- GI50 [40]: 13.9 µM
- TGI [40]: 99.2 µM
- GI50 [41]: 3.45 µM
- TGI [41]: 18.1 µM
- GI50 [42]: 8.33 µM
- TGI [42]: 44.5 µM
- GI50 [43]: 6.44 µM
- TGI [43]: > 65 µM
- GI50 [44]: 0.434 µM
- TGI [44]: > 100 µM
- GI50 [45]: 1.15 µM
- TGI [45]: > 100 µM
- GI50 [46]: 11 µM
- TGI [46]: > 100 µM
- GI50 [47]: 1.72 µM
- TGI [47]: > 100 µM
- GI50 [48]: 2.03 µM
- TGI [48]: > 100 µM
- GI50 [49]: 0.403 µM
- TGI [49]: > 100 µM
- GI50 [50]: 15.9 µM
- TGI [50]: 74.4 µM
- GI50 [51]: > 27.9 µM
- TGI [51]: > 100 µM
- GI50 [52]: > 29 µM
- TGI [52]: > 100 µM
- GI50 [53]: 28.1 µM
- TGI [53]: > 100 µM
- GI50 [54]: 15 µM
- TGI [54]: > 79.3 µM
- GI50 [55]: 9.13 µM
- TGI [55]: 54.4 µM
- GI50 [56]: 0.211 µM
- TGI [56]: > 100 µM
- GI50 [57]: 4.58 µM
- TGI [57]: 52.7 µM
- GI50 [58]: 5.25 µM
- TGI [58]: > 100 µM

From PubChem BioAssay (NCI)
